# Bridge positions count the residues as written; N and C are the ends. Square brackets hold non-standard residues; d marks the D form. Ends that are not written are not given here. Peptide text beside a SMILES is read from it. S5 = C=CCCC[C@](C)(N)C(=O)O
# B1: S-TBS, stapled talin-binding site peptide (Stp(15,19))H2N-NEDIDQMFSTLLGE(S5)DLL(S5)QS-OH (peptide)
# peptide: H-NEDIDQMFSTLLGE[S5]DLL[S5]QS-OH
# modifications: staple 15-19; also: FITC label in some assays, site not given here
# notes: X stands for the non-natural stapling residue (S5); also called stapled TBS; stapled-TBS
# Columns and labels:
# [1] = system: β3-THD (integrin β3-talin head domain fusion protein); test: GST pull-down, β3-THD chimera; type: binding; details: GST-fused peptide on glutathione beads, His-tagged talin protein, Western blot
# Description: The interaction of the TBS segment of RIAM with the talin head domain is compatible with the integrin-β:talin interaction (see, Yang et al., Nat. Commun., 2014, 5, 5880). To test this proposed synergistic interaction, a chimeric protein was constructed by fusing a integrin 03 segment to talin head domain (β3-THD) and assessed its interaction with TBS. […] The T14E mutation in TBS is expected to generate anew salt-bridge interaction with talin through the Arg358 residue, which is essential for the interaction of talin and integrin-β3 (FIG. 2, Panel D; see Barsukov et al., J. Biol. Chem., 2003, 278, 31202-09).
# Plasmid construction, protein purification, and GST pull-down: Talin R7R8, talin head domain, β3-THD chimera, and GST-TBS were expressed and purified as described previously described (see, Zhang et al., Proc. Natl. Acad. Sci. U.S.A., 2020, 117, 32402-12; and Chang et al., 2014). Point mutations were constructed using a site-directed mutagenesis method. […] The proteins were resolved by SDS-PAGE and detected by Coomassie staining or Western blotting. […] The blots were visualized with the SuperSignal West Pico Chemiluminescent Substrate (Thermo Scientific) and detected using the FluorChem E imager (ProteinSimple).
# [2] = system: HEK-293 cells; test: Cell toxicity assay, HEK-293; type: cell-based; details: 40 μM, treated one hour then washed away, viability at 24 and 48 hours
# Protocol: (§1) The cell toxicity of the peptides was then examined. HEK, MCF-7, and HeLa were used. Cells were treated with S-TBS 40 μm for one hour. The S-TBS was then washed away and the viability measured at 24 and 48 hours. No impact on HEK, MCF-7, and HeLa cell growth was observed.
# [3] = system: HeLa cells; test: Cell toxicity assay, HeLa; type: cell-based; details: 40 μM, treated one hour then washed away, viability at 24 and 48 hours
# Protocol: as §1
# [4] = system: integrin αIIbβ3; test: Integrin activation assay, wild-type talin head domain; type: cell-based; details: CHO-A5 cells expressing GFP-tagged wild-type talin head domain; TBS 100 μM, S-TBS 10 and 100 μM, 30 minutes; PAC1 flow cytometry
# Protocol: (§2) Assessing integrin activation: CHO-A5 cells were transfected with GFP-tagged talin-head domain (residues 1-430, WT or W359A) and incubated for 24 hours at 37° C. The cells were subsequently treated with WT-TBS at 100 μM or Staple-TBS (at 10 and 100 μM) for 30 minutes at 37° C. and washed twice with PBS, harvested in trypsin-EDTA, and centrifuged at 2,000 rpm for 5 minutes. The cells were incubated in Tyrode's buffer (136.9 mM NaCl, 10 mM HEPES, 5.5 mM glucose, 11.9 mM NaHCO3, 2.7 mM KCl, 0.5 mM CaCl2), 1.5 mM MgCl2, and 0.4 mM NaH2PO4, pH 7.4) containing PAC1 antibody for 1 hour at 30° C. and then stained with Alexa 647 (goat anti-mouse IgM) for 30 minutes at RT. The cells were quantified with an LSR flow cytometer using 30,000 cells per measurement.
# (§3) The effect of S-TBS on talin-induced activation of integrin αIIbβ3 was examined. CHO-A5 cells that stably express integrin αIIbβ3 were transfected with a green fluorescent protein-tagged talin head domain, treated with S-TBS or TBS, and then subjected flow cytometry analysis for integrin αIIbβ3 activity. […]
# (§4) Integrin activation assays: CHO-A5 cells were transfected with talin-head domain, wild-type or W359A, and incubated for 24 hours at 37° C. […] The cells were quantified with a Beckton, Dickenson & Co. Biosciences LSR flow cytometer (660/20 filter, 640 nm laser) using 30,000 cells per measurement.
# [5] = system: CHO-A5 cells; test: Cell permeability assay (flow cytometry uptake of fluorophore-labelled peptide); type: in vitro ADME; details: CHO-A5 cells, lower doses, flow cytometry permeability index, fluorophore-labelled peptides
# Protocol: Assessing membrane permeability: CHO-A5 cells were treated with FAM-labelled WT-TBS (1, 10, and 50 μM), or with FITC-labelled stapled-TBS (1, 10, and 50 μM), and incubated for 30 minutes at 37° C. The cells were washed twice with phosphate-buffered saline (PBS), harvested in trypsin-EDTA, and centrifuged at 2,000 rpm for 5 minutes. The cells were resuspended in PBS and quantified with an LSR flow cytometer using 30,000 cells per measurement.
# A common challenge for peptidomimetic drugs that target intracellular proteins is the poor cell membrane permeability. To assess the effect of the C8 staple on cell permeability, FITC-labeled S-TBS were incubated with CHO cells at various concentration and examined S-TBS uptake by flow cytometry. […] The assay was then performed using lower doses of peptides and quantified the signals for statistical analyses. […] In contrast, TBS requires a concentration of at least 5 μM for cell uptake (FIG. 3, Panel B).
# Cell permeability assay: CHO-A5 cells were plated in 6-well dishes, and then treated with fluorophore labeled TBS or S-TBS peptides at indicated concentrations for 30 minutes at 37° C. The cells were then washed twice with phosphate-buffered saline (PBS), detached by adding a mixture of trypsin and […] (“trypsin-EDTA”) and harvested by spinning at 2,000 rpm for 5 minutes. The cells were resuspended in PBS and quantified with an LSR flow cytometer (525/50 filter, 488 nm laser) using 30,000 cells per measurement.
# [6] = system: MCF-7 cells; test: Cell toxicity assay, MCF-7; type: cell-based; details: 40 μM, treated one hour then washed away, viability at 24 and 48 hours
# Protocol: as §1
# [7] = system: integrin αIIbβ3; test: Integrin activation assay, inactive talin head mutant THD-W359A; type: cell-based; details: CHO-A5 cells transfected with THD-W359A; TBS 100 μM, S-TBS 10 and 100 μM; PAC1 flow cytometry
# Protocol: as §2, §3, §4
# [8] = target: T1, Talin rod R7R8 domains (UniProt P26039 1357-1653, limits assumed); test: fluorescence polarization; fluorophore-labelled peptide titrated with talin R7R8
# T1 construct: domain: R7R8; also called talin R7R8; talin rod double-domain R7R8
# Protocol: (§5) To assess the binding affinities of S-TBS with talin, the Kd of TBS and S-TBS peptides with talin rod R7R8 and talin head (residues 1-430) were measured using fluorophore-labeled peptides and recombinantly expressed, purified talin proteins by FP assays. […] This gain of affinity may be attributed to the C8 staple as it stabilizes the helical structure of TBS, and the enhanced hydrophobic interaction between S-TBS and talin rod. The enhanced binding of S-TBS to talin further validates the design strategy of using stapled peptides as a potent competitive inhibitor.
# (§6) Fluorescent Polarization: Mixtures were prepared of purified talin proteins at a series concentration (R7R8: 0.2 μM to 20 μM; THD/b3-THD: 5 μM to 100 μM), or buffer only, with 20 nM FITC-labeled S-TBS (New England Peptide) in a buffer containing 20 mM HEPES, pH 7.5, 100 mM NaCl, and 2 mM DTT. After five minutes of incubation, 20 μl of the reaction mix was added to individual wells of a 384-well assay plate (Corning) and then measured fluorescence polarization at room temperature using a plate reader. A […] as emission polarization filters. FP signals were normalized against buffer-only background and then fit to a single-site (saturating) binding model using SigmaPlot (Systat Software).
# [9] = target: T1, Talin rod R7R8 domains; test: fluorescence polarization; Kd of S-TBS against Kd of TBS
# Protocol: as §5, §6
# [10] = target: T2, Talin head domain (residues 1-430) (UniProt P26039 1-430); test: as above
# T2 construct: range 1-430; also called THD
# Protocol: as §5, §6
# [11] = target: T2, Talin head domain (residues 1-430); test: fluorescence polarization; fluorophore-labelled peptide titrated with talin head (residues 1-430)
# Protocol: as §5, §6
# [12] = target: T2, Talin head domain (residues 1-430); test: fluorescence polarization, as the legend of FIG. 9 Panel B prints it (Table 2 prints 116)
# Protocol: as §5, §6
# [13] = target: T1, Talin rod R7R8 domains; test: fluorescence polarization; fluorophore-labelled peptide, purified talin protein titrated
# Protocol: as §5, §6
# [14] = target: T2, Talin head domain (residues 1-430); test: as above
# Protocol: as §5, §6
# T2 sequence (P26039 1-430 limits assumed): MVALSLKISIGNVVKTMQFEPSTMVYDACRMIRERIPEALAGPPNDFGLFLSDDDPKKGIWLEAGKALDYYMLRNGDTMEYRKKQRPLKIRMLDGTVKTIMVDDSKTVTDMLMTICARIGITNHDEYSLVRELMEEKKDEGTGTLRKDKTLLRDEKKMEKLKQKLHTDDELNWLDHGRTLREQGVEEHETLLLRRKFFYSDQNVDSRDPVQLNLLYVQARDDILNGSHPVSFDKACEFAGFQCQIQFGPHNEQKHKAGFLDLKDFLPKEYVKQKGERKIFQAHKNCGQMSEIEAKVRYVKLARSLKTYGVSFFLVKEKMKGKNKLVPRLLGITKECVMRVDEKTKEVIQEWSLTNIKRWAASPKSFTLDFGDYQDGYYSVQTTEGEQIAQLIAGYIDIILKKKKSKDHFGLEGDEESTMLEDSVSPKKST
# T1 sequence (P26039 1357-1653 limits assumed): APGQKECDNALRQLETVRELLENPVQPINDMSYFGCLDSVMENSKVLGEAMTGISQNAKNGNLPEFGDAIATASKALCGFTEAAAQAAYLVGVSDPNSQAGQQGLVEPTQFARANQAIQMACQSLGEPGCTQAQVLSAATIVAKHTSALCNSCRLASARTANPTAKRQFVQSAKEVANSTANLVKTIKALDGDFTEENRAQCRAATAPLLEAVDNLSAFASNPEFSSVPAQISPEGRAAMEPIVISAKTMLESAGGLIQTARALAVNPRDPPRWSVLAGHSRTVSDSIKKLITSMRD
molecule,measurement,setting,value
"CC[C@H](C)[C@H](NC(=O)[C@H](CC(=O)O)NC(=O)[C@H](CCC(=O)O)NC(=O)[C@@H](N)CC(N)=O)C(=O)N[C@@H](CC(=O)O)C(=O)N[C@@H](CCC(N)=O)C(=O)N[C@@H](CCSC)C(=O)N[C@@H](Cc1ccccc1)C(=O)N[C@@H](CO)C(=O)N[C@H](C(=O)N[C@@H](CC(C)C)C(=O)N[C@@H](CC(C)C)C(=O)NCC(=O)N[C@@H](CCC(=O)O)C(=O)N[C@@H](CCSC)C(=O)N[C@@H](CC(=O)O)C(=O)N[C@@H](CC(C)C)C(=O)N[C@@H](CC(C)C)C(=O)N[C@H](C(=O)N[C@@H](CCC(N)=O)C(=O)N[C@@H](CO)C(=O)O)[C@@H](C)O)[C@@H](C)O [TBS, reference compound] (H-NEDIDQMFSTLLGEMDLLTQS-OH; N-terminus and C-terminus assumed)",interaction with β3-THD (pull-down),[1],much more strongly than with THD alone
same,"cell toxicity (viability / cell growth), HEK",[2],minimal cell toxicity
same,"cell toxicity (viability / cell growth), HeLa",[3],minimal cell toxicity
same,integrin αIIbβ3 activity (talin-induced activation),[4],no inhibitory effect
same,concentration giving significant cell uptake,[5],at least 5 μM
same,"cell toxicity (viability / cell growth), MCF-7",[6],minimal cell toxicity
same,integrin αIIbβ3 activity with inactive talin head THD-W359A,[7],No inhibitory effect
B1,EC50 (read off the curve),[8],~2 µM
same,fold stronger binding than TBS,[9],6 fold
same,fold stronger binding than TBS,[10],3.5 fold
same,EC50 (read off the curve),[11],10 to 20 µM
"NEDIDQMFSTLLGEMDLLTQS (also: fluorescein (6-FAM) label in some assays, also called WT-TBS; unstapled TBS) [TBS peptide (unstapled talin-binding site peptide of RIAM)]",Kd,[12],106 µM
same,Kd,[13],17.7 µM
same,Kd,[14],116 µM
